Legend:
[1] = target: T1, Mitogen-activated protein kinase 13 (Homo sapiens) (UniProt O15264); conditions: Compound concentration 1000.0 nM
T1 sequence (whole entry): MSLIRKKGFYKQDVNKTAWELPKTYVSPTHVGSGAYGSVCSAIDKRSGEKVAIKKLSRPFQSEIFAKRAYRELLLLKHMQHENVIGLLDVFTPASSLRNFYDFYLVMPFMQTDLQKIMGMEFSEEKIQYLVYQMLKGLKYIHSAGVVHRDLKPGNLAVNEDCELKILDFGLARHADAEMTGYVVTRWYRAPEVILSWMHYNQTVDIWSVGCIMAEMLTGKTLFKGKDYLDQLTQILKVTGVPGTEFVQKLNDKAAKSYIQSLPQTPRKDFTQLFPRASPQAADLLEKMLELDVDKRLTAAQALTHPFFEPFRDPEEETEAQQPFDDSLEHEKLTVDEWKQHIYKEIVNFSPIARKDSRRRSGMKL

[2] = target: Alpha-1B adrenergic receptor (Homo sapiens) (UniProt P35368); conditions: Compound concentration 10.0 uM
[3] = target: Ribosomal protein S6 kinase alpha-4 (Homo sapiens) (UniProt O75676); conditions: Compound concentration 1000.0 nM
[4] = target: T2, Serine/threonine-protein kinase STK11 (Homo sapiens) (UniProt Q15831); conditions: Compound concentration 1000.0 nM
T2 sequence (whole entry): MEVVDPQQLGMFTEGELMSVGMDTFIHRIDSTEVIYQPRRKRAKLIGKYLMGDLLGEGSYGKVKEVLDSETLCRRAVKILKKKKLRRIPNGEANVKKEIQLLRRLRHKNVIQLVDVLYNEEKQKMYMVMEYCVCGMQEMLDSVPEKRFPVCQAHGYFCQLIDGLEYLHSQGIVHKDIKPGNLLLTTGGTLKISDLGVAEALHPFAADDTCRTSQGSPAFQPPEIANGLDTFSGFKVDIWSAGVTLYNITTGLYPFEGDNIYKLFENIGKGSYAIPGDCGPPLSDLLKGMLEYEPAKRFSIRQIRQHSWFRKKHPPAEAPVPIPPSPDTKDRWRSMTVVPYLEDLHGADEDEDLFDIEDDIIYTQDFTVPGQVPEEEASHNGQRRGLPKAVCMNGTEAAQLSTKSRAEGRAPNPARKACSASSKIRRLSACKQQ

[5] = tested on: Receptor-type tyrosine-protein kinase FLT3 (Homo sapiens), P36888 [UNDEFINED MUTATION]; conditions: Compound concentration 1000.0 nM
[6] = target: SRSF protein kinase 3 (Homo sapiens) (UniProt Q9UPE1); conditions: Compound concentration 1000.0 nM
[7] = target: Kappa-type opioid receptor (Homo sapiens) (UniProt P41145); conditions: Compound concentration 10.0 uM
[8] = target: Serine/threonine-protein kinase pim-1 (Homo sapiens) (UniProt P11309); conditions: Compound concentration 1000.0 nM
[9] = target: T3, Dual specificity mitogen-activated protein kinase kinase 6 (Homo sapiens) (UniProt P52564); conditions: Compound concentration 1000.0 nM
T3 sequence (whole entry): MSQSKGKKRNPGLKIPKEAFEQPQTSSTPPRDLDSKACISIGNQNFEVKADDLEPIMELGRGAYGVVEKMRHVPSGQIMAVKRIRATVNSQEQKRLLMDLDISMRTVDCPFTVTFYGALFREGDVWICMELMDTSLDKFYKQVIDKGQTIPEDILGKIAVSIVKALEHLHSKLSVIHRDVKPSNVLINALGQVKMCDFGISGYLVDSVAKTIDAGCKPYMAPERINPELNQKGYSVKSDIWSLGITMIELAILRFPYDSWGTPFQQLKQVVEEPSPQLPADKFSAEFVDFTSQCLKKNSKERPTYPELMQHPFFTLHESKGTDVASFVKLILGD

[10] = target: T4, TGF-beta receptor type-1 (Homo sapiens) (UniProt P36897); conditions: Compound concentration 1000.0 nM
T4 sequence (whole entry): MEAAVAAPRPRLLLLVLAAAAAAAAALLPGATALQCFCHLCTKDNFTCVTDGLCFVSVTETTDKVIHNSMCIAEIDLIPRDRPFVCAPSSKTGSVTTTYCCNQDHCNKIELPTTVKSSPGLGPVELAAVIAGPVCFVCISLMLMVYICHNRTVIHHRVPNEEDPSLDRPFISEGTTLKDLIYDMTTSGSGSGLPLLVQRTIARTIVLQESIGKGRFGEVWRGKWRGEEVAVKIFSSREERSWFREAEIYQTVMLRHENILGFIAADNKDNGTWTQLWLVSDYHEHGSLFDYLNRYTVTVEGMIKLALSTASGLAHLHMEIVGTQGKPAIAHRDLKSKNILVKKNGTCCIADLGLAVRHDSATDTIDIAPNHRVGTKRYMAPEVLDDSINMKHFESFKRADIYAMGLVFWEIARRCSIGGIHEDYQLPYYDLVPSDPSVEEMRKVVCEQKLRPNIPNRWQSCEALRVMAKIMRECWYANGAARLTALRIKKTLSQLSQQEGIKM

[11] = target: Cyclin-dependent kinase 13 (Homo sapiens) (UniProt Q14004); conditions: Compound concentration 1000.0 nM
[12] = target: Wee1-like protein kinase 2 (Homo sapiens) (UniProt P0C1S8); conditions: Compound concentration 1000.0 nM
[13] = target: SRSF protein kinase 2 (Homo sapiens) (UniProt P78362); conditions: Compound concentration 1000.0 nM
[14] = target: Cyclin-dependent kinase 7 (Homo sapiens) (UniProt P50613); conditions: Compound concentration 1000.0 nM
Sequence of Cyclin-dependent kinase 7 (Homo sapiens) (P50613 whole entry): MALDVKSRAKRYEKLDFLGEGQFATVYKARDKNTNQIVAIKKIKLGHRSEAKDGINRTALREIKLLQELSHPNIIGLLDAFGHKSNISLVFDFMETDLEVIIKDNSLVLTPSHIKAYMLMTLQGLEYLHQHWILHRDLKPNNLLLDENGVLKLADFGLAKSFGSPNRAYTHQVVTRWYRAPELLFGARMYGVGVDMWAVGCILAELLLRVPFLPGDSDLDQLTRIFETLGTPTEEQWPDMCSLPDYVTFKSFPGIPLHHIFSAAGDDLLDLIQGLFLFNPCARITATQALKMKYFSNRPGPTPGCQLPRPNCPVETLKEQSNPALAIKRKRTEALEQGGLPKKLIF

Sequence of Ribosomal protein S6 kinase alpha-4 (Homo sapiens) (O75676 whole entry, looked up): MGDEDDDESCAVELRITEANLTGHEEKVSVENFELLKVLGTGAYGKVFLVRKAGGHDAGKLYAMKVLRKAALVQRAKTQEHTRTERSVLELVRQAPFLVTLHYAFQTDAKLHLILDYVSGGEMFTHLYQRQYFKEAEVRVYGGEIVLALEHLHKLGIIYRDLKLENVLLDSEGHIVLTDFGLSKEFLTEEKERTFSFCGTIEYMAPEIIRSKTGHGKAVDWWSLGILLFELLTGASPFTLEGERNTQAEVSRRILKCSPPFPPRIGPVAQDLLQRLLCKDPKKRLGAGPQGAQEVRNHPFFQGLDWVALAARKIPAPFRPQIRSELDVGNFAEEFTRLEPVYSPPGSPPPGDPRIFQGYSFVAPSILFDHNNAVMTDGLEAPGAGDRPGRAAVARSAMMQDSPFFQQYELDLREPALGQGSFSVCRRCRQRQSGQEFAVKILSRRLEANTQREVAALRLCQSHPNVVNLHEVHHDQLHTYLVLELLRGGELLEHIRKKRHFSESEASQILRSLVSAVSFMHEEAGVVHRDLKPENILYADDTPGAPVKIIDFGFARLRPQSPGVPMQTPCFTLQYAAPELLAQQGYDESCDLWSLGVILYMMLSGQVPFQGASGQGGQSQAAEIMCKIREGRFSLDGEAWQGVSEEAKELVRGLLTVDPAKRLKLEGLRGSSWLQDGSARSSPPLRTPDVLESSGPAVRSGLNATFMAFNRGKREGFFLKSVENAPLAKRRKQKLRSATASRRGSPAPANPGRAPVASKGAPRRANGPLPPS
Sequence of Cyclin-dependent kinase 13 (Homo sapiens) (Q14004 whole entry, looked up): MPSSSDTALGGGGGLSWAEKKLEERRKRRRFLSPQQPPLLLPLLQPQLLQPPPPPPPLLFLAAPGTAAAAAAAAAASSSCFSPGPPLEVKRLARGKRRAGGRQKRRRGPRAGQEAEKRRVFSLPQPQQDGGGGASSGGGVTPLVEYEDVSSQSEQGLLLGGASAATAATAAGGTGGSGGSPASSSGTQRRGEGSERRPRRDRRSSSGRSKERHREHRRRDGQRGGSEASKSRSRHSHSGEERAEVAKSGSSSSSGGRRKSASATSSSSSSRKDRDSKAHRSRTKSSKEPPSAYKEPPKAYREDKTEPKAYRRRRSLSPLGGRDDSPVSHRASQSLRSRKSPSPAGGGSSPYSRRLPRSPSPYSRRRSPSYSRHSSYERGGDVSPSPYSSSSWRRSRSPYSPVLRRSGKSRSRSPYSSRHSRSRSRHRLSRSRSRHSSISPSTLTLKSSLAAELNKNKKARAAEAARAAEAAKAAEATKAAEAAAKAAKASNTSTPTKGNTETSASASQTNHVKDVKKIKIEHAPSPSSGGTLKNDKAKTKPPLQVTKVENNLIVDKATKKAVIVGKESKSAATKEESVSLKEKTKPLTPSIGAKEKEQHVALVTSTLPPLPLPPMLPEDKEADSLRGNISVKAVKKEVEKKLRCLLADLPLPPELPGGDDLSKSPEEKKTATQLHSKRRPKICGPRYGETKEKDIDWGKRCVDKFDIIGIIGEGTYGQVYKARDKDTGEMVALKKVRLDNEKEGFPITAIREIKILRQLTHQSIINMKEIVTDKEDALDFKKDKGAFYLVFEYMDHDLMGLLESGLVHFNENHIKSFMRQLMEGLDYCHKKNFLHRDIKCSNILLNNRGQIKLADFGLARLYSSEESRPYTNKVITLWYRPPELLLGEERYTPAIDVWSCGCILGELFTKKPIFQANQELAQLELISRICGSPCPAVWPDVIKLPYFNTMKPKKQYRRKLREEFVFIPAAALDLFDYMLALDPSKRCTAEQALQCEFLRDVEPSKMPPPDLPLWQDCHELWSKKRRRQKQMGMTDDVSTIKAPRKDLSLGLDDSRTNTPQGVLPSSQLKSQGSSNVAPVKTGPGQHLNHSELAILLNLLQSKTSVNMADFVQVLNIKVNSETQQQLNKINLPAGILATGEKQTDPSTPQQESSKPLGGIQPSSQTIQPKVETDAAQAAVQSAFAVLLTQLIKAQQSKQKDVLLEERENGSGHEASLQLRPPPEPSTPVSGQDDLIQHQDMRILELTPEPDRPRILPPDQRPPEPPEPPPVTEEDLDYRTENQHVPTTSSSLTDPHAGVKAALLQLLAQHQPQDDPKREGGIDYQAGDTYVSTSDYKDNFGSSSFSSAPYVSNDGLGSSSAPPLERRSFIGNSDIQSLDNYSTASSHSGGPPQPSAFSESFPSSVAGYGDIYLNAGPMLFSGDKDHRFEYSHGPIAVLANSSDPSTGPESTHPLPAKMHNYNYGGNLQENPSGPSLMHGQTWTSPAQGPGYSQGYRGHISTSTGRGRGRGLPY
Sequence of Alpha-1B adrenergic receptor (Homo sapiens) (P35368 whole entry): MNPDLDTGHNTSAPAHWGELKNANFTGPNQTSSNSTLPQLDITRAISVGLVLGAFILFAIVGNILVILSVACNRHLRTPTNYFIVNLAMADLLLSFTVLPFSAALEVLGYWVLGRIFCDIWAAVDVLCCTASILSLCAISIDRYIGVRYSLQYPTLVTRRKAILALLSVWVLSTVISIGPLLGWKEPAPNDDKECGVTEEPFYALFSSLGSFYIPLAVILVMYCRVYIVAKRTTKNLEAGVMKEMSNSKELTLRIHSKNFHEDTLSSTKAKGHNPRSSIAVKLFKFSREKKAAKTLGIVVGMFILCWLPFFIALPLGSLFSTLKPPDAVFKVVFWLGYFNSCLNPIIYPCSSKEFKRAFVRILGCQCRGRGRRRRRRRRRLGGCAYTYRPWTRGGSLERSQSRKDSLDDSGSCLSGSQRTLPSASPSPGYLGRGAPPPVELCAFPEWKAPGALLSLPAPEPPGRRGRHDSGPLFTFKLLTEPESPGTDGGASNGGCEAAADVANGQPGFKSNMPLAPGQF
Sequence of Wee1-like protein kinase 2 (Homo sapiens) (P0C1S8 whole entry, looked up): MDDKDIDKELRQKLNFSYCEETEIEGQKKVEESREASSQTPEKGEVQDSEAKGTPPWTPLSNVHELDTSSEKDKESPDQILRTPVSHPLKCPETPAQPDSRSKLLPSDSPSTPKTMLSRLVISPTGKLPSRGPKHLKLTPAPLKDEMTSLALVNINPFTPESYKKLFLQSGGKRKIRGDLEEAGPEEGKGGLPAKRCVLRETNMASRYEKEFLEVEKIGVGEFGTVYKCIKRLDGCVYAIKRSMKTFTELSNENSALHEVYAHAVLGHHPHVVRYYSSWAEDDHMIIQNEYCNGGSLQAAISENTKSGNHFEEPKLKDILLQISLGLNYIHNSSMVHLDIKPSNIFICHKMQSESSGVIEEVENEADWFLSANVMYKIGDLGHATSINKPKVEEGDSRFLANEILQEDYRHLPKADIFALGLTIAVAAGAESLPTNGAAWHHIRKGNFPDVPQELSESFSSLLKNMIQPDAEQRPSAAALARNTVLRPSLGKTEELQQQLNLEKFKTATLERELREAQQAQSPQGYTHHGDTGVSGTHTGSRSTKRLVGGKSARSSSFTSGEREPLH
Sequence of SRSF protein kinase 2 (Homo sapiens) (P78362 whole entry, looked up): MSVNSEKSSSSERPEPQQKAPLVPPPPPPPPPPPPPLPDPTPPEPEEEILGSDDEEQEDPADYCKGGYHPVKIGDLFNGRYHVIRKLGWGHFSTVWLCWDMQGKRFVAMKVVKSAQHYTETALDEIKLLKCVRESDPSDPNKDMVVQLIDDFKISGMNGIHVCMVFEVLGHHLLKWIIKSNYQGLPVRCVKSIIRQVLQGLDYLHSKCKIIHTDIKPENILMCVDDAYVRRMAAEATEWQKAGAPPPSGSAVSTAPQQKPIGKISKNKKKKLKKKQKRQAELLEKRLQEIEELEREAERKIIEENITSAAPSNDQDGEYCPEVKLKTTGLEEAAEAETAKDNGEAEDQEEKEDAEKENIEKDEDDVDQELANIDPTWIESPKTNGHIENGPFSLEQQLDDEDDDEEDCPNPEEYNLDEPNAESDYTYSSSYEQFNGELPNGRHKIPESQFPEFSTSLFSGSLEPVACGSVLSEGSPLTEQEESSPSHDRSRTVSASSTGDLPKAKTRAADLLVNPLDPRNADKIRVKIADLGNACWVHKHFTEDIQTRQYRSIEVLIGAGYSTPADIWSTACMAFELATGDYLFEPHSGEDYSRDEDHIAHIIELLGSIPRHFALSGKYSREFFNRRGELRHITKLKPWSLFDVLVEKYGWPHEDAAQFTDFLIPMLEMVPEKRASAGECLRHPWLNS
Sequence of Kappa-type opioid receptor (Homo sapiens) (P41145 whole entry): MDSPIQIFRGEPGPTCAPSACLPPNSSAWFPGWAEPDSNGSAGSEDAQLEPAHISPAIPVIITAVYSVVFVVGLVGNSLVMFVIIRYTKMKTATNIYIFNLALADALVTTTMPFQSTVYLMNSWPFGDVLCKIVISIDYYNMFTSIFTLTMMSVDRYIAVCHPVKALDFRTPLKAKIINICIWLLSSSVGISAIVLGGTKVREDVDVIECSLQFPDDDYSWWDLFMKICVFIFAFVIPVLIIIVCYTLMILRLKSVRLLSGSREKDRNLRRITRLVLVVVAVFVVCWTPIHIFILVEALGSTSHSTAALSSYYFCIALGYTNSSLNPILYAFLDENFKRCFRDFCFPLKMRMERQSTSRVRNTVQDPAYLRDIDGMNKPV

SMILES: CCc1ccccc1C(=O)Nc1n[nH]c2c(C)c(F)c(C3C(C#N)=C(C)N(C)C(C)=C3C#N)cc12 [BAY-3827]
- residual activity [1]: 96%
- inhibition [2]: -9.38%
- residual activity [3]: 100%
- residual activity [4]: 100%
- residual activity [5]: 11%
- residual activity [6]: 100%
- inhibition [7]: 16.1%
- residual activity [8]: 100%
- residual activity [9]: 98%
- residual activity [10]: 58%
- residual activity [11]: 100%
- residual activity [12]: 82%
- residual activity [13]: 100%
- residual activity [14]: 90%

SMILES: CC1=C(C#N)C(c2ccc3c(c2)c(NC(=O)c2ccccc2C)nn3C)C(C#N)=C(C)N1 [BAY-974]
- residual activity [1]: 79%
- inhibition [2]: -4.61%
- residual activity [3]: 89%
- residual activity [4]: 89%
- residual activity [5]: 64%
- residual activity [6]: 100%
- inhibition [7]: 21.6%
- residual activity [8]: 100%
- residual activity [9]: 95%
- residual activity [10]: 100%
- residual activity [11]: 87%
- residual activity [12]: 100%
- residual activity [13]: 88%
- residual activity [14]: 58%

Reference: ChEMBL document CHEMBL4507319 (2021)
